Measurements: article PMC7933286, “Structure-guided selection of puromycin N-acetyltransferase mutants with enhanced selection stringency for deriving mammalian cell lines expressing recombinant proteins” (Scientific Reports, 2021)

Biological target: T1, PAC (puromycin N-acetyltransferase) (Streptomyces alboniger, UniProt P13249)
T1 construct: native full-length pac amplified from pBABE-puro, N-terminal His6-tag (pET43a), expressed in E. coli BL21(DE3); IMAC and Superdex 75; tag removal not mentioned
T1 sequence (P13249 whole entry): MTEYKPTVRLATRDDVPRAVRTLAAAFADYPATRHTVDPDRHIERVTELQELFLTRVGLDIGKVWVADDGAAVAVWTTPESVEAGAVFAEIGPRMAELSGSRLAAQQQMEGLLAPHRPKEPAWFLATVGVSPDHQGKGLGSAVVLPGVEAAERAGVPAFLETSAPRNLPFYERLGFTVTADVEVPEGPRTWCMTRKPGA
Experiment: X-ray crystal structure
Type: binding

[1] = crystals grown with 2 mM AcCoA and 2 mM puromycin, pH 8.26, trapped reaction product

| Structure (SMILES) | X-ray crystal structure [1] | X-ray crystal structure (crystals with 0.1 mM AcCoA, pH 9.0, acetyl donor site) |
| --- | --- | --- |
| CC(C)(COP(=O)(O)OP(=O)(O)OC[C@H]1O[C@@H](n2cnc3c(N)ncnc32)[C@H](O)[C@@H]1OP(=O)(O)O)[C@@H](O)C(=O)NCCC(=O)NCCS [CoA] | The ligands modelled into this structure were CoA and N-acetylated puromycin | – |
| COc1ccc(C[C@H](NC(C)=O)C(=O)N[C@H]2[C@@H](O)[C@H](n3cnc4c(N(C)C)ncnc43)O[C@@H]2CO)cc1 [N-acetylated puromycin] | The ligands modelled into this structure were CoA and N-acetylated puromycin | – |
| CC(=O)SCCNC(=O)CCNC(=O)[C@H](O)C(C)(C)COP(=O)(O)OP(=O)(O)OC[C@H]1O[C@@H](n2cnc3c(N)ncnc32)[C@H](O)[C@@H]1OP(=O)(O)O [acetyl-CoA] | – | allowed the initial structure to be solved with AcCoA bound |
